This is an account of results in patent publication US12344610B2, “APOL1 inhibitors and methods of use” (Maze Therapeutics, Inc., priority 2022, dated 2025).

In test [1] the test system is Trypanosoma brucei Lister 427 VSG221 with APOL1 G1 recombinant protein. In words: APOL1 G1 trypanosome cell rescue assay (Example B5). In kind it is cell-based. The following applies: geometric mean of at least 2 assay runs, † = single assay run. The procedure, abridged: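 Viability read by CellTiter-Glo luminescence after 20 h co-incubation (37° C, 5% CO2) of 250 trypanosomes/well in modified HMI-9 with test compound (duplicate 11-point, 2-fold dilutions, 0.4% DMSO) and APOL1 protein, […]. Protein: mature residues 28-398, E. coli inclusion-body refolded, tag cleaved, in DDM.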

Test [2] has as its system HEK293 clonal cell line overexpressing APOL1 G1. In words: APOL1 G1 HEK293 cell rescue assay (Example B3). In kind it is cell-based. The note with it: geometric mean of at least 2 runs, † = single run, ¥ = concentration at 50% rescue estimated (no sigmoidal curve). The procedure, abridged:
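Rescue of cell death caused by APOL1 G1 overexpression was measured in a clonal HEK293 line. Compounds were tested in duplicate on one plate, and EC50s were geometric means across at least two runs on different days. Some values are estimated 50%-rescue concentrations where curve fitting failed.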

Where [3] appears, read: Trypanosoma brucei, 20 h, read-out: APOL1 G1 Trypanosome Rescue EC50, Trypanosoma brucei Lister 427 VSG221 with APOL1 G1 recombinant protein, 20 hours, CellTiter-Glo.
Where [4] appears, read: Homo sapiens, HEK293, HEK293 clonal line overexpressing APOL1 G1.

Read-outs that look alike come from different tables or passages of the source.

Turning to `CC1(O)CC(CN2C(=O)CCc3cc(OCCN4CCC5(CC4)C(=O)Nc4ccc(Cl)cc45)cnc32)C1` (single isomer, unassigned) [Compound 322, 5-chloro-1′-{2-[(7-oxo-8-{[(trans) or (cis)-3-hydroxy-3-methylcyclobutyl]methyl}-5,6,7,8-tetrahydro-1,8-naphthyridin-3-yl)oxy]ethyl}-1,2-dihydrospiro[indole-3,4′-piperidin]-2-one], the 50% effective concentration (EC50) in test [1] (read-out: APOL1 G1 Trypanosome Rescue EC50, Trypanosoma brucei Lister 427 VSG221 with APOL1 G1 recombinant protein, 20 hours, CellTiter-Glo) was 34.9 nM; in test [2] (HEK293 clonal line overexpressing APOL1 G1), 38.6 nM.
On to `CC(=O)N1CCCc2cc(OCCN3CCC4(CC3)C(=O)Nc3ccc(Cl)cc34)ccc21` [Compound 56, 1′-{2-[(1-acetyl-1,2,3,4-tetrahydroquinolin-6-yl)oxy]ethyl}-5-chloro-1,2-dihydrospiro[indole-3,4′-piperidin]-2-one], for which the half-maximal effective concentration (EC50) was 319 nM in test [1] (setting [3]) and 330 nM in test [2] (setting [4]).
On the same counts, the results for `CC1(O)CC2(CN(c3ncc(OCCN4CCC5(CC4)C(=O)Nc4ccc(Cl)cc45)cn3)C2)C1` [Compound 459, 5-chloro-1′-{2-[(2-{6-hydroxy-6-methyl-2-azaspiro[3.3]heptan-2-yl}pyrimidin-5-yl)oxy]ethyl}-1,2-dihydrospiro[indole-3,4′-piperidin]-2-one] are 133 nM and 95.5 nM.
In the same order, the values of `C[C@]1(O)C[C@@H](n2c(=O)ccc3cc(OCCN4CCC5(CC4)C(=O)Nc4ccc(Cl)cc45)cnc32)C1` [Compound 323, 5-chloro-1′-[2-({7-oxo-8-[(cis)-3-hydroxy-3-methylcyclobutyl]-7,8-dihydro-1,8-naphthyridin-3-yl}oxy)ethyl]-1,2-dihydrospiro[indole-3,4′-piperidin]-2-one] are 35.9 nM and 36.4 nM.
In the same order, the values of `C[C@]1(O)C[C@@H](N2C(=O)Cc3cc(OCCN4CCC5(CC4)C(=O)Nc4ccc(Cl)cc45)cnc32)C1` [Compound 345, 5-chloro-1′-[2-({2-oxo-1-[(cis)-3-hydroxy-3-methylcyclobutyl]-1H,2H,3H-pyrrolo[2,3-b]pyridin-5-yl}oxy)ethyl]-1,2-dihydrospiro[indole-3,4′-piperidin]-2-one] are 242 nM and 79 nM.
As for `CC(C)(O)c1ncc(OCCN2CCC3(CC2)C(=O)Nc2ccc(Cl)cc23)cc1C(F)(F)F` [Compound 371, 5-chloro-1′-(2-{[6-(2-hydroxypropan-2-yl)-5-(trifluoromethyl)pyridin-3-yl]oxy}ethyl)-1,2-dihydrospiro[indole-3,4′-piperidin]-2-one], the EC50 is 21.9 nM in test [1] (setting [3]) and 28.8 nM in test [2] (setting [4]).
In the same order, the values of `C[C@]1(O)C[C@@H](N2C(=O)NCc3cc(OCCN4CCC5(CC4)C(=O)Nc4ccc(Cl)cc45)cnc32)C1` [Compound 356, 5-chloro-1′-[2-({2-oxo-1-[(cis)-3-hydroxy-3-methylcyclobutyl]-1H,2H,3H,4H-pyrido[2,3-d]pyrimidin-6-yl}oxy)ethyl]-1,2-dihydrospiro[indole-3,4′-piperidin]-2-one] are 113 nM and 162 nM.
On the same counts, the results for `C[C@]1(O)C[C@@H](n2cc3cc(OCCN4CCC5(CC4)C(=O)Nc4ccc(C#N)cc45)cc(C(F)(F)F)c3n2)C1` [Compound 428, 2-oxo-1′-[2-({2-[(cis)-3-hydroxy-3-methylcyclobutyl]-7-(trifluoromethyl)-2H-indazol-5-yl}oxy)ethyl]-1,2-dihydrospiro[indole-3,4′-piperidine]-5-carbonitrile] are 71.9 nM and 89.6 nM.
On the same counts, the results for `O=C1Nc2ccc(Cl)cc2C12CCN(CCOc1cnc(C3(CO)CC3)nc1)CC2` [Compound 333, 5-chloro-1′-[2-({2-[1-(hydroxymethyl)cyclopropyl]pyrimidin-5-yl}oxy)ethyl]-1,2-dihydrospiro[indole-3,4′-piperidin]-2-one] are 205 nM and 98.6 nM.
Consider `C[C@]1(O)C[C@@H](n2cnc3cc(OCCN4CCC5(CC4)C(=O)Nc4ccc(Cl)cc45)cc(C(F)(F)F)c32)C1` [Compound 352, 5-chloro-1′-[2-({1-[(cis)-3-hydroxy-3-methylcyclobutyl]-7-(trifluoromethyl)-1H-1,3-benzodiazol-5-yl}oxy)ethyl]-1,2-dihydrospiro[indole-3,4′-piperidin]-2-one], for which the EC50 in test [1] (setting [3]) was 18.8 nM; in test [2] (setting [4]), 9.95 nM.
In the same order, the values of `C[C@]1(O)C[C@@H](n2c(=O)[nH]c3cc(OCCN4CCC5(CC4)C(=O)Nc4ccc(C#N)cc45)cc(C(F)(F)F)c32)C1` [Compound 470, 2-oxo-1′-[2-({2-oxo-1-[(cis)-3-hydroxy-3-methylcyclobutyl]-7-(trifluoromethyl)-2,3-dihydro-1H-1,3-benzodiazol-5-yl}oxy)ethyl]-1,2-dihydrospiro[indole-3,4′-piperidine]-5-carbonitrile] are 12.4 nM and 47.6 nM.
As to `O=C1Nc2ccc(Cl)cc2C12CCN(CCOc1ccc3nccnc3c1)CC2` [Compound 62, 5-chloro-1′-[2-(quinoxalin-6-yloxy)ethyl]-1,2-dihydrospiro[indole-3,4′-piperidin]-2-one], the EC50 in test [1] (setting [3]) was 390 nM; in test [2] (setting [4]), 433 nM.
In the same order, the values of `O=C1Nc2ccc(Cl)cc2C12CCN(CCOc1ccc(S(=O)(=O)C3CC3)cc1)CC2` [Compound 43, 5-chloro-1′-{2-[4-(cyclopropanesulfonyl)phenoxy]ethyl}-1,2-dihydrospiro[indole-3,4′-piperidin]-2-one] are 86.6 nM and 131 nM.
In the same order, the values of `CN1C(=O)CCc2cc(OCCN3CCC4(CC3)C(=O)Nc3ccc(Cl)cc34)cnc21` [Compound 78, 5-chloro-1′-{2-[(8-methyl-7-oxo-5,6,7,8-tetrahydro-1,8-naphthyridin-3-yl)oxy]ethyl}-1,2-dihydrospiro[indole-3,4′-piperidin]-2-one] are 97.6 nM and 128 nM.
In the same order, the values of `CN1C(=O)Cc2cc(OCCN3CCC4(CC3)C(=O)Nc3ccc(Cl)cc34)ccc21` [Compound 65, 5-chloro-1′-{2-[(1-methyl-2-oxo-2,3-dihydro-1H-indol-5-yl)oxy]ethyl}-1,2-dihydrospiro[indole-3,4′-piperidin]-2-one] are 294 nM and 351 nM.
As for `CC[C@]1(O)C[C@@H](N2C(=O)CCc3cc(OCCN4CCC5(CC4)C(=O)Nc4ccc(Cl)cc45)cnc32)C1` (single isomer, unassigned) [Compound 321, 5-chloro-1′-[2-({7-oxo-8-[(cis)-3-ethyl-3-hydroxycyclobutyl]-5,6,7,8-tetrahydro-1,8-naphthyridin-3-yl}oxy)ethyl]-1,2-dihydrospiro[indole-3,4′-piperidin]-2-one], the EC50 in test [1] (setting [3]) is 45.9 nM; in test [2] (setting [4]), 47.7 nM.
On the same counts, the results for `C[C@]1(O)C[C@@H](n2nnc3cc(OCCN4CCC5(CC4)C(=O)Nc4ccc(Cl)cc45)cnc32)C1` [Compound 440, 5-chloro-1′-[2-({3-[(cis)-3-hydroxy-3-methylcyclobutyl]-3H-[1,2,3]triazolo[4,5-b]pyridin-6-yl}oxy)ethyl]-1,2-dihydrospiro[indole-3,4′-piperidin]-2-one] are 205 nM and 139 nM.
In the same order, the values of `C[C@]1(O)C[C@@H](n2ccc3cc(OCCN4CCC5(CC4)C(=O)Nc4ccc(Cl)cc45)cnc32)C1` [Compound 349, 5-chloro-1′-[2-({1-[(cis)-3-hydroxy-3-methylcyclobutyl]-1H-pyrrolo[2,3-b]pyridin-5-yl}oxy)ethyl]-1,2-dihydrospiro[indole-3,4′-piperidin]-2-one] are 89.8 nM and 73.5 nM.
`CN(c1ccc(OCCN2CCC3(CC2)C(=O)Nc2ccc(C#N)cc23)cc1)S(C)(=O)=O` [Compound 75, N-[4-(2-{5-cyano-2-oxo-1,2-dihydrospiro[indole-3,4′-piperidin]-1′-yl}ethoxy)phenyl]-N-methylmethanesulfonamide]: the EC50 in test [1] (setting [3]) was 578 nM; in test [2] (setting [4]), 406 nM.
Take `NC(=O)c1ccc(OCCN2CCC3(CC2)C(=O)Nc2ccc(Cl)cc23)cc1F` [Compound 46, 4-(2-{5-chloro-2-oxo-1,2-dihydrospiro[indole-3,4′-piperidin]-1′-yl}ethoxy)-2-fluorobenzamide]: the EC50 in test [1] (setting [3]) was 215 nM; in test [2] (setting [4]) it was 253 nM.
On the same counts, the results for `CC(=O)N1Cc2ccc(OCCN3CCC4(CC3)C(=O)Nc3ccc(Cl)cc34)cc2C1` [Compound 57, 1′-{2-[(2-acetyl-2,3-dihydro-1H-isoindol-5-yl)oxy]ethyl}-5-chloro-1,2-dihydrospiro[indole-3,4′-piperidin]-2-one] are 672 nM and 390 nM.
For the compound `CS(=O)(=O)c1ccc(OCCN2CCC3(CC2)C(=O)Nc2ccc(Cl)cc23)cc1F` [Compound 63, 5-chloro-1′-[2-(3-fluoro-4-methanesulfonylphenoxy)ethyl]-1,2-dihydrospiro[indole-3,4′-piperidin]-2-one], the results for the EC50 in test [1] (setting [3]) and in test [2] (setting [4]) were 164 nM and 160 nM, respectively.
In the same order, the values of `Cn1ncc2cc(OCCN3CCC4(CC3)C(=O)Nc3ccccc34)ccc21` [Compound 70, 1′-{2-[(1-methyl-1H-indazol-5-yl)oxy]ethyl}-1,2-dihydrospiro[indole-3,4′-piperidin]-2-one] are more than 4000 nM and more than 2530 nM.

As usually defined, the EC50 is the concentration that produces a half-maximal response.
